This assay relates to B16 melanoma ip, C57BL/6 mice, median survival T/C. In words: NCI In Vivo Anticancer Drug Screen. Data for tumor model B16 Melanoma (intraperitoneal) in C57BL/6 mice. The settings on record: endpoint: median survival time, higher = longer survival. On the procedure: The antitumor activity of compounds was measured in mice bearing transplantable tumors. Survival or tumor size were measured and the results are expressed as the measurement made in the treated group (T) divided by the measurement made in the vehicle treated control group (C). The tumor model used in this assay is B16 Melanoma (intraperitoneal) in C57BL/6 mice

[1] abbreviates: dose: 25.0 mg/kg/injection, schedule: Q01DX009 (ip), vehicle: saline with Tween-80.
The mark [2] stands for this setting: dose: 50.0 mg/kg/injection, schedule: Q01DX009 (ip), vehicle: saline with Tween-80.
The mark [3] stands for this setting: dose: 25.0 mg/kg/injection, schedule: Q01DX009 (ip), vehicle: saline.
Where [4] appears, read: dose: 50.0 mg/kg/injection, schedule: Q01DX009 (ip), vehicle: saline.
[5] abbreviates: dose: 100.0 mg/kg/injection, schedule: Q01DX009 (ip), vehicle: saline.
Setting [6] is: dose: 200.0 mg/kg/injection, schedule: Q01DX009 (ip), vehicle: saline.
[7] abbreviates: dose: 1.56 mg/kg/injection, schedule: Q01DX009 (ip), vehicle: saline.
Where [8] appears, read: dose: 3.13 mg/kg/injection, schedule: Q01DX009 (ip), vehicle: saline.
The mark [9] stands for this setting: dose: 31.3 mg/kg/injection, schedule: Q01DX009 (ip), vehicle: saline.
The mark [10] stands for this setting: dose: 0.1 mg/kg/injection, schedule: Q01DX009 (ip), vehicle: saline.
[11] abbreviates: dose: 0.2 mg/kg/injection, schedule: Q01DX009 (ip), vehicle: saline.
[12] abbreviates: dose: 400.0 mg/kg/injection, schedule: Q01DX009 (ip), vehicle: saline.
[13] abbreviates: dose: 6.25 mg/kg/injection, schedule: Q01DX009 (ip), vehicle: saline.
The mark [14] stands for this setting: dose: 15.6 mg/kg/injection, schedule: Q01DX009 (ip), vehicle: saline.
Where [15] appears, read: dose: 62.5 mg/kg/injection, schedule: Q01DX009 (ip), vehicle: saline.
[16] abbreviates: dose: 125.0 mg/kg/injection, schedule: Q01DX009 (ip), vehicle: saline.
[17] abbreviates: dose: 0.13 mg/kg/injection, schedule: Q01DX009 (ip), vehicle: saline.
Where [18] appears, read: dose: 0.25 mg/kg/injection, schedule: Q01DX009 (ip), vehicle: saline.
Setting [19] is: dose: 0.5 mg/kg/injection, schedule: Q01DX009 (ip), vehicle: saline.
The mark [20] stands for this setting: dose: 1.0 mg/kg/injection, schedule: Q01DX009 (ip), vehicle: saline.
Setting [21] is: dose: 100.0 mg/kg/injection, schedule: Q01DX009 (ip), vehicle: saline with Tween-80.

Several values for one entry are separate records, joined by “and”; a condition that tells them apart may be missing. Identical values can stand only once. Inconclusive results and toxic doses are left out. *1 amine or outer side, *2 acyl side, *3 side chain or, on linkers, in order; H or OH if unused. Where a SMILES comes first, the peptide text is derived from it. Bridges are numbered along the chain shown (N, C = ends). Roman numbers before positions name the chains, in order. [ ]: non-standard residue; d: D form. Actinocin(9to1) = Cc1c2oc3c(C)ccc(C(=O)[*:1])c3nc-2c(C(=O)[*:2])c(N)c1=O; aThr = C[C@H](O)[C@H](N)C(=O)O; NMeV = CN[C@H](C(=O)O)C(C)C; Sar = CNCC(=O)O

For `CC(C)S(=O)(=O)/C(Cl)=C(/Cl)C(Cl)=C(Cl)Cl`, the T/C under setting [1] is 94 % of control and the T/C under setting [2] is 97 % of control.
Turning to `O=CC(S)CO` (centres undefined), the T/C was 120 % of control under setting [3] and 120 % of control under setting [4].
Regarding `COc1cc(NS(C)(=O)=O)ccc1Nc1c2ccccc2nc2ccccc12`, the T/C by setting is: (dose: 0.5 mg/kg/injection, schedule: Q01DX009 (ip), vehicle: water) 160 % of control; (dose: 1.0 mg/kg/injection, schedule: Q01DX009 (ip), vehicle: Klucel (hydroxypropylcellulose) (HPC)) 172 % of control; (dose: 2.0 mg/kg/injection, schedule: Q01DX009 (ip), vehicle: Klucel (hydroxypropylcellulose) (HPC)) 179 % of control; (dose: 2.0 mg/kg/injection, schedule: Q01DX009 (ip), vehicle: water) 222 % of control; (dose: 4.0 mg/kg/injection, schedule: Q01DX009 (ip), vehicle: water) 246 % of control.
`CCSCCC(N)C(=O)O` (centres undefined): the T/C by setting is: under setting [4], 100 % of control; under setting [5], 100 % of control; under setting [6], 90 % of control.
`O=NN(CCCl)C(=O)Nc1ccc(CCO)cc1`: the T/C was 195 % of control under setting [7] and 190 % of control under setting [8].
As for `Nc1nc2n[nH]nc2c(=O)[nH]1`, the T/C under setting [3] is 100 % of control, the T/C under setting [4] is 103 % of control, the T/C under setting [5] was 86 % of control and the T/C under setting [6] is 90 % of control.
Take `C[n+]1c2ccccc2c(Nc2ccc(NS(=O)(=O)CCCCN=C(N)N)cc2)c2ccc(N)cc21`: the T/C reads like this: (dose: 0.38 mg/kg/injection, schedule: Q01DX009 (ip), vehicle: water) 115 % of control; (dose: 0.75 mg/kg/injection, schedule: Q01DX009 (ip), vehicle: water) 158 % of control; (dose: 1.5 mg/kg/injection, schedule: Q01DX009 (ip), vehicle: water) 151 % of control; (dose: 3.0 mg/kg/injection, schedule: Q01DX009 (ip), vehicle: water) 113 % of control; (dose: 6.0 mg/kg/injection, schedule: Q01DX009 (ip), vehicle: water) 101 % of control.
Regarding `CNNCc1ccc(C(=O)NC(C)C)cc1`, the T/C by setting is: under setting [4], 121 % of control; under setting [5], 121 % of control; under setting [6], 110 % of control and 121 % of control.
Regarding `Nc1ncnc2c(C3OC(CO)C(O)C3O)[nH]nc12` (centres undefined), the T/C reads like this: (dose: 8.0 mg/kg/injection, schedule: Q01DX009 (ip), vehicle: saline) 153 % of control; (dose: 16.0 mg/kg/injection, schedule: Q01DX009 (ip), vehicle: saline) 113 % of control; under setting [9], 157 % of control.
`CC1CC(C)(O)CC(C(O)CC2CC(=O)NC(=O)C2)C1=O` (centres undefined): the T/C is 111 % of control under setting [10]; 122 % of control under setting [11]; 116 % of control (dose: 0.4 mg/kg/injection, schedule: Q01DX009 (ip), vehicle: saline); 86 % of control (dose: 0.8 mg/kg/injection, schedule: Q01DX009 (ip), vehicle: saline).
Take `CC(Cc1ccc(O)c(O)c1)C(C)Cc1ccc(O)c(O)c1` (centres undefined): the T/C reads like this: under setting [4], 103 % of control; under setting [5], 106 % of control; under setting [6], 113 % of control; under setting [12], 113 % of control.
As for `COc1cc(N(CCCl)CCCl)ccc1NC(=O)c1ccccc1`, the T/C is, setting by setting: under setting [7], 102 % of control; under setting [8], 115 % of control; under setting [13], 115 % of control.
Regarding `C=CCN(CC=C)c1ncnc2[nH]ncc12`, the T/C is, setting by setting: under setting [14], 105 % of control; under setting [9], 100 % of control; under setting [15], 102 % of control; under setting [16], 102 % of control.
In the case of `CN(C)/N=N/c1nc[nH]c1C(N)=O`, the T/C was 116 % of control under setting [3], 120 % of control under setting [4] and 150 % of control under setting [5].
Turning to `CN1CCN(CCCN2c3ccccc3Sc3ccc(C(F)(F)F)cc32)CC1`, the T/C under setting [3] was 107 % of control.
For `C1CN1c1nc(N2CC2)nc(N2CC2)n1`, the T/C under setting [17] was 103 % of control and 116 % of control and 120 % of control; the T/C under setting [18] is 109 % of control and 120 % of control and 122 % of control; the T/C under setting [19] was 86 % of control; the T/C under setting [20] was 100 % of control.
Take `O=C(O)CCCCSc1ncnc2nc[nH]c12`: the T/C under setting [21] was 110 % of control; the T/C (dose: 200.0 mg/kg/injection, schedule: Q01DX009 (ip), vehicle: saline with Tween-80) is 103 % of control; the T/C (dose: 400.0 mg/kg/injection, schedule: Q01DX009 (ip), vehicle: saline with Tween-80) was 114 % of control.
In the case of `COc1ccc2c3c(c4cc(OC)c(OC)cc4c2c1)C[C@H]1CCCCN1C3`, the T/C was 100 % of control under setting [17]; 100 % of control and 119 % of control under setting [18]; 113 % of control under setting [19]; 90 % of control under setting [20].
Turning to `CCOC(=O)n1cnc2ncnc(SC)c21`, the T/C reads like this: under setting [14], 105 % of control; under setting [9], 100 % of control; under setting [15], 105 % of control; under setting [16], 100 % of control.
For the molecule `O=P1(N(CCCl)CCCl)NCCCO1` (centres undefined), the T/C is 93 % of control under setting [3] and 90 % of control under setting [5].
Consider `CCc1nc(N)nc(N)c1-c1ccc(Cl)cc1`, for which the T/C is, setting by setting: under setting [3], 96 % of control; under setting [4], 100 % of control; under setting [5], 93 % of control; under setting [6], 113 % of control.
Turning to `O=c1[nH]cc(F)c(=O)[nH]1`, the T/C runs as follows: (dose: 5.0 mg/kg/injection, schedule: Q01DX009 (ip), vehicle: saline) 113 % of control; (dose: 10.0 mg/kg/injection, schedule: Q01DX009 (ip), vehicle: saline) 120 % of control; (dose: 20.0 mg/kg/injection, schedule: Q01DX009 (ip), vehicle: saline) 123 % of control.
In the case of `CCN(CC)CCOc1ccc2c(c1)C(=O)c1cc(OCCN(CC)CC)ccc1-2`, the T/C by setting is: under setting [1], 103 % of control; under setting [2], 92 % of control; under setting [21], 114 % of control.
For the molecule `Cn1cc(NC(=O)c2cc(NC(=O)CN=C(N)N)cn2C)cc1C(=O)NCCC(=N)N`, the T/C runs as follows: under setting [8], 100 % of control and 107 % of control; under setting [13], 100 % of control and 107 % of control; (dose: 12.5 mg/kg/injection, schedule: Q01DX009 (ip), vehicle: saline) 100 % of control; under setting [3], 86 % of control.
Take `COc1cc2c(cc1OC)C(c1cc(OC)c(OC)c(OC)c1)C1(O)C(=O)OCC1(O)C2` (centres undefined): the T/C under setting [4] was 93 % of control, the T/C under setting [5] is 93 % of control, the T/C under setting [6] was 86 % of control and the T/C under setting [12] is 86 % of control.
As to `Cc1c2oc3c(C)ccc(C(=O)N[C@@H]4C(=O)N[C@H](C(C)C)C(=O)N5CCC[C@H]5C(=O)N(C)CC(=O)N(C)[C@@H](C(C)C)C(=O)O[C@H]4C)c3nc-2c(C(=O)N[C@@H]2C(=O)N[C@H](C(C)C)C(=O)N3CCC[C@H]3C(=O)N(C)CC(=O)N(C)[C@@H](C(C)C)C(=O)O[C@H]2C)c(N)c1=O` (I: [aThr][dV]P[Sar][NMeV] / II: [aThr][dV]P[Sar][NMeV]; ester I:1-I:C, II:1-II:C; linker I:N-II:N via Actinocin(9to1)), the T/C by setting is: (dose: 0.03 mg/kg/injection, schedule: Q01DX009 (ip), vehicle: saline) 150 % of control and 165 % of control; (dose: 0.05 mg/kg/injection, schedule: Q01DX009 (ip), vehicle: saline) 156 % of control and 164 % of control and 193 % of control; under setting [10], 203 % of control; under setting [11], 117 % of control.
As to `CCCC/C=C/CCCCCCCC(=O)OCCCCCCCCCCCCCCCC`, the T/C (dose: 400.0 mg/kg/injection, schedule: Q01DX001 (ip), vehicle: saline with Tween-80) was 86 % of control.
For `N#CSCc1ccc(Cl)cc1Cl`, the T/C under setting [1] was 102 % of control and the T/C under setting [2] was 100 % of control.
For the molecule `NC(Cc1ccc(N(CCCl)CCCl)cc1)C(=O)O` (centres undefined), the T/C (dose: 4.0 mg/kg/injection, schedule: Q01DX009 (ip), vehicle: saline) was 200 % of control and 268 % of control and 350 % of control.
In the case of `CN1C=c2c3c(ccc2=C2C=CC4C=C5OCOC5=CC4=C21)OCO3` (centres undefined), the T/C by setting is: (dose: 1.0 mg/kg/injection, schedule: Q01DX009 (ip), vehicle: saline with Tween-80) 103 % of control; (dose: 2.0 mg/kg/injection, schedule: Q01DX009 (ip), vehicle: saline with Tween-80) 92 % of control; (dose: 4.0 mg/kg/injection, schedule: Q01DX009 (ip), vehicle: saline with Tween-80) 96 % of control.

For the origin of these results see PubChem BioAssay AID198 (DTP/NCI, 2004).
